This is an account of results in US9192639B1, “Convolvulus extract for treatment of peptic ulcer and helicobacter pylori infection” (KING SAUD UNIVERSITY, priority 2014, dated 2015).

Each structure is given as a SMILES string.

Assay [1] deals with H. pylori clinical isolates and reference strain ATCC 43504. The assay can be described thus: Disk diffusion test, anti-Helicobacter pylori activity. Further details: key to Inhibition Zone: *R: Resistant. Type of assay: cell-based.
Assay [2] has as its system absolute ethanol-induced ulcer in Wistar rats. The assay can be described thus: Anti-ulcerogenic activity, absolute ethanol-induced ulcer model. Conditions: oral 100 mg/kg; for % Protection: % protection of control ulcer, 100 mg/kg. Type of assay: in vivo. As for the experimental part:
Evaluation of the anti-ulcerogenic activity was carried out using an absolute ethanol-induced ulcer model according to published methods. About 30 Wistar rats were divided into 5 groups, each of 6 rats. Group 1 received the vehicle and served as control group. Group 2 received ranitidine (100 mg/kg) and served as a standard group. […] Rats of all groups were fasted for 24 hours, and then all medications were administered orally. […] The stomachs were rapidly removed, opened along their greater curvature, and gently rinsed under running tap water. The number of lesions in the glandular part of the stomach was measured under an illuminated magnifying microscope (10×). Long lesions were counted and their lengths were measured. Petechial lesions were counted, and then each five petechial lesions were taken as 1 mm of ulcer. The mucosal lesions were quantified by the scoring system (0-5), where 0=no damage; 1=Local edema and inflammation without ulcers; 2=One ulcer without inflammation; 3=one to two ulcers with inflammation & lesion diameter <1 cm; 4=More than two ulcers with lesion diameter 1-2 cm; 5=Sever ulceration with lesion diameter >2 cm. To calculate the ulcer index (mm), the sum of the total length of long ulcers and petechial lesions in each group of rats was divided by its number. The curative ratio was determined according to the formula: % Protection of control ulcer=Control UI−Test UI/Control UI×100.

With `CC1(C)S[C@@H]2[C@H](NC(=O)[C@H](N)c3ccc(O)cc3)C(=O)N2[C@H]1C(=O)O` [Amoxicillin], the “Inhibition Zone” value in assay [1] (H. pylori strain ATCC 43504, disk 30 μg) was 30 mm; in assay [1] (H. pylori strain KA01, disk 30 μg), “R*”; in assay [1] (H. pylori strain KA01, disk 30 μg, listed as amoxicillin), “resistant”; in assay [1] (H. pylori strain KA02, disk 30 μg), 20 mm; in assay [1] (H. pylori strain KA03, disk 30 μg) it was 21 mm; in assay [1] (H. pylori strain KA04, disk 30 μg) it was 20 mm. Besides, the “Inhibition Zone” value in assay [1] (H. pylori strain KA05, disk 30 μg) worked out at 22 mm; in assay [1] (H. pylori strain KA07, disk 30 μg), 25 mm; in assay [1] (H. pylori strain KAO6, disk 30 μg) it was 23 mm. Besides, the “Susceptibility of H. pylori isolates by disc diffusion” value in assay [1] (all isolates with the exception of isolate KA01) was “sensitive”.
On to `CC[C@H]1OC(=O)[C@H](C)[C@@H](O[C@H]2C[C@@](C)(OC)[C@@H](O)[C@H](C)O2)[C@H](C)[C@@H](O[C@@H]2O[C@H](C)C[C@H](N(C)C)[C@H]2O)[C@](C)(O)C[C@@H](C)C(=O)[C@H](C)[C@@H](O)[C@]1(C)O` [Erythromycin], for which the “Inhibition Zone” value was determined as 28 mm in assay [1] (H. pylori strain ATCC 43504, disk 15 μg); 19 mm in assay [1] (H. pylori strain KA01, disk 15 μg); 23 mm in assay [1] (H. pylori strain KA02, disk 15 μg); 22 mm in assay [1] (H. pylori strain KA03, disk 15 μg); 22 mm in assay [1] (H. pylori strain KA04, disk 15 μg); 20 mm in assay [1] (H. pylori strain KA05, disk 15 μg). For the same compound, the “Inhibition Zone” value in assay [1] (H. pylori strain KA07, disk 15 μg) is 23 mm; in assay [1] (H. pylori strain KAO6, disk 15 μg), 24 mm. Further, the “Susceptibility of H. pylori isolates by disc diffusion” value in assay [1] (all of the isolates of H. pylori) is listed as “sensitive”.
Take `CNC(=C[N+](=O)[O-])NCCSCc1ccc(CN(C)C)o1` [Ranitidine]: the “% Protection” value is 46.2% in assay [2] and “about 46.2%” in assay [2] (listed as ranitidine). In addition, the Score in assay [2] (mucosal lesion scoring system 0-5) was 2.2.
